From patent US20240002429A1, “PRODRUG OF 5a-HYDROXY-6ß-[2-(1H-IMIDAZOL-4-YL)ETHYLAMINO]CHOLESTAN-3ß-OL AND PHARMACEUTICAL COMPOSITIONS COMPRISING SAME FOR USE IN THE TREATMENT OF CANCER” (priority 2020, published 2024)

Tests used:
[1] = test system: MCF-7 mammary tumor cells; assay: Morphology of MCF-7 cells under inverted microscope; format: cell-based
Description: A cell viability test was carried out on MCF-7 mammary tumor cells (Michigan Cancer Foundation-7) […] (ER(+) cells) containing receptors for the hormone estrogen.
The MCF-7 cells are in a cell culture medium identical to example 14 and are seeded in 12-well plates at 50000 cells per well for 24 h. 24 hours after seeding, the cells are treated with the solvate vehicle comprising water and ethanol with an ethanol ratio 1‰ and comprising 5α-hydroxy-6β-[2-(1H-imidazol-4-yl)-ethylamino]-cholestan-3β-yl propionate or 5α-hydroxy-6β-[2-(1H-imidazol-4-yl)-ethylamino]-cholestan-3β-ol at 1, 2.5 or 5 μM. The cells are observed in an inverted microscope and photographed with the microscope camera at 24 h and 48 h. The morphological changes of the cells at 1 μM are very slight.
In this test: • The white vesicles reflect cell death by cytotoxic autophagy; • The cells that become rounded reflect cell death; • The cells that become detached reflect a cytotoxic effect; • The adherent cells reflect cell survival; • The supernatant cells reflect cell death; and • The refractive cells reflect cell death.

4T1 cells [2] = assay: Cytotoxicity on 4T1 cells, LDH; format: cell-based, murine; conditions: Mus musculus, 4T1, LDH, 48 h
Description: (§1) The cellular viability tests were carried out on murine mammary tumor 4T1 cells characterized as negative triples (HER2−, ER−, PR−).
(§2) For this experiment, a cell culture medium was prepared. The culture medium consists of Dulbecco's Modified Eagle Medium (DMEM, marketed by Westburg under the reference LO BE12-604F), comprising 4.5 g/L glucose with L-glutamine, to which 10% of fetal calf serum (FCS) and 50 U/mL of penicillin/streptomycin are added. The 4T1 cells are introduced into this culture medium.
(§3) 96-well plates were seeded with 2000 4T1 cells per well. After 72 hours (h) of culture in normal conditions, i.e. in an incubator at a temperature of 37° C. at 5% CO2, the 4T1 cells are treated for 48 h with DX101, DX107, DX113, DX117, DX119, DX121 or DX131 at 100 nM, 1 μM, 2.5 μM and 10 μM. A control condition (CTL) is also carried out in parallel using the protocol described above but without treatment with the molecules DX101, DX107, DX113, DX117, DX119, DX121, DX131 or DX133.
For the second method, the percentage viability is determined using assay of the activity of the enzyme LDH (lactate dehydrogenase) in the cellular supernatants using the kit non radioactive cytotoxicity assay kit (Promega). LDH is an enzyme released in the supernatant of dead cells. The higher the LDH activity in the supernatant, the greater is the cell death. In this enzyme test, the LDH released converts a violet tetrazolium salt to formazan, of red color, absorbing at 490 nm. The intensity of the red color is proportional to the number of dead cells. After 48 h of treatment, the supernatants are transferred to a new 96-well plate and are incubated for 30 minutes in the presence of the substrate mix at room temperature. The reaction is stopped using the stop buffer and the absorbance is determined at 490 nm. The percentage cell death is determined here using a control 100% of maximum activity of LDH (carried out with untreated cells incubated in the presence of the lysis solution for 45 minutes at 37° C. just before adding the substrate mix), and the cellular viability in each well is then deduced from this percentage. IC50 is then determined as explained in the preceding paragraph.

[3] = test system: BT-474 human mammary tumor cells; assay: Cytotoxicity on BT-474 cells, trypan blue; format: cell-based; conditions: BT-474, trypan blue, 48 h
Description: The cellular viability tests were also carried out on BT-474 human mammary tumor cells (characterized as being positive triples HER2+, ER+, PR+). The BT-474 cells are in a cell culture medium identical to the preceding example and are seeded in 24-well plates at 70 000 cells per well, for determination of cellular viability using trypan blue, or in 96-well plates at 13 000 cells per well for determination of cellular viability using the MTT or LDH assay. After 96 hours (h) of culture in normal conditions, i.e. in an incubator at a temperature of 37° C. at 5% CO2, the BT-474 cells are treated for 48 h with DX101, DX107, and DX113 at 100 nM, 1 μM, 2.5 μM and 10 μM. A control is also carried out using the protocol described above but without treatment with the molecules DX101, DX107, DX113, DX117, DX119, DX121 or DX131.
After trypsin digestion for 10 minutes at 37° C., cell survival was quantified, also by a trypan blue assay with automatic counting with the Biorad TC20 equipment (TC20™ Automated Cell Counter). The trypan blue assay is based on the cell membrane integrity, which is broken in the dead cells. Trypan blue stains the dead cells blue. The Biorad TC20 cell counter counts the proportion of blue cells and non-blue cells, relative to the cell percentages. The percentage viability is then determined in each well relative to the untreated cells and the IC50 is determined as explained in the preceding example. The percentage viability of the BT-474 cells was determined using the MTT and LDH assay, carried out as described in the preceding example.

4T1 cells [4] = assay: Cytotoxicity on 4T1 cells, MTT; format: cell-based, murine; conditions: Mus musculus, 4T1, MTT, 48 h
Description: as §1, §2, §3
Cellular viability is measured by three different methods. For the first method, MTT labeling is carried out at 48 hours. This test is based on the use of the tetrazolium salt MTT (3-(4,5-dimethylthiazol-2-yl)-2,5-diphenyltetrazolium bromide). The tetrazolium is reduced by mitochondrial succinate dehydrogenase of active living cells, to formazan, a precipitate of a violet color. The quantity of precipitate formed is proportional to the quantity of living cells but also to the metabolic activity of each cell. […] After 48 hours, the medium is aspirated, and the cells are incubated with MTT (0.5 mg/ml in culture medium) for about 3 hours. The MTT solution is aspirated and the violet crystals are dissolved in dimethylsulfoxide (DMSO). The OD (optical density) is measured at 550 nm. The percentage viability is then determined in each well relative to the CTL and the IC50 (concentration for which there are still 50% of living cells) is determined for each molecule with Prism software using the nonlinear regression straight line (log(inhibitor) vs. Response).

[5] = log of IC50 in μM, read-out: Mean LogIC50 (±SEM) (converted)

Structure (SMILES)	Morphological observations at 24 hours ([1]; MCF-7, 1 μM, 24 h)	Observations at 48 hours ([1]; MCF-7, 5 μM, 48 h)	IC50 (4T1 cells [2]; [5]) [µM]	IC50 (4T1 cells [2]; read-out: IC50) [µM]	Mean LogIC50 (±SEM) ([3]; log of IC50 in μM)	IC50 ([3]; Homo sapiens) [µM]	IC50 (4T1 cells [4]; [5]) [µM]	IC50 (4T1 cells [4]; read-out: IC50) [µM]
CC(C)CCC[C@@H](C)[C@H]1CC[C@H]2[C@@H]3C[C@@H](NCCc4c[nH]cn4)[C@@]4(O)C[C@@H](O)CC[C@]4(C)[C@H]3CC[C@]12C [DX101, 5α-hydroxy-6β-[2-(1H-imidazol-4-yl)-ethylamino]-cholestan-3β-ol, reference compound]	Some white vesicles	All the cells are supernatant.	–	–	–	–	–	–
CCC(=O)O[C@H]1CC[C@]2(C)[C@H]3CC[C@]4(C)[C@@H]([C@H](C)CCCC(C)C)CC[C@H]4[C@@H]3C[C@@H](NCCc3c[nH]cn3)[C@@]2(O)C1 [DX107, 5α-hydroxy-6β-[2-(1H-imidazol-4-yl)ethylamino]cholestan-3β-yl propionate]	–	–	3.31	3.29	0.66 ± 0.04	4.58	3.8	3.79
